Each block holds one molecule with its values, some of them ahead of it.
Experiments:
[1] = tested on: skin melanoma (SK-MEL-30); test: MTS metabolic activity assay, SK-MEL-30 cells; format: cell-based; conditions: Homo sapiens, 72 h, read-out: Cell metabolic activity (MTS), % of untreated control; for viability at 10 µM: SK-MEL-30, 10 µM; for viability at 20 µM: SK-MEL-30, 20 µM; for viability at 50 µM: SK-MEL-30, 50 µM; for viability at 100 µM: SK-MEL-30, 100 µM; for viability at 200 µM: SK-MEL-30, 200 µM; for viability at 300 µM: SK-MEL-30, 300 µM; for viability at 500 µM: SK-MEL-30, 500 µM
Protocol: (§1) The BJ (CRL-2522), Caco-2 (HTB-37), PANC-1 (CRL-1469), U-118 MG (HTB-15), SK-MEL-30 (ACC 151), and MDA-MB-231 (HTB-26) cell lines were purchased from ATCC (Manassas, VA, USA) or DSMZ (Braunschweig, GERMANY). Cells were cultured in accordance with manufacturers' recommendations in a DMEM, MEM, or RPMI-1640 (Sigma, Saint Louis, MO, USA; Gibco, Waltham, MA, USA), supplemented with 10% FBS, except for Caco-2 (20%) (Thermo Fisher Scientific, Waltham, MA, USA) and 1% antibiotic mix solution (penicillin, streptomycin; Thermo Fisher Scientific, Waltham, MA, USA) in a humidified atmosphere with 5% CO2 at 37 °C. All cell lines were cultured in T75 cell culture flasks or cell culture dishes to reach 80–90% confluency and seeded at a standard density of 5 × 10^3 cells/0.32 cm^2, except for BJ cells at 2 × 10^3 cells/0.32 cm^2.
(§2) The MTS ((MTS: 3-(4,5-dimethylthiazol-2-yl)-5-(3-carboxymethoxyphenyl)-2-(4-sulfophenyl)-2H-tetrazolium)) assay was performed following previously reported method. Briefly, cells were seeded at a standard density into 96-well flat-bottom plates and incubated for 24 h, followed by the treatment. The various concentrations of compounds were prepared and treated for the next 72 h. MTS solution was added for 3h and incubated at standard conditions, protected from light. Finally, the absorbance was read at […] and 620 nm wavelengths using a Synergy H1 microplate reader (BioTek, Santa Clara, CA, USA). The results are presented as %, while untreated control cells were considered 100%.

[2] = tested on: glioma (U-118 MG); test: MTS metabolic activity assay, U-118 MG cells; format: cell-based; conditions: 72 h; for viability at 10 µM / viability at 20 µM / viability at 50 µM / viability at 100 µM / viability at 200 µM / viability at 300 µM / viability at 500 µM: Homo sapiens, U-118-MG, U118-MG, read-out: Cell metabolic activity (MTS), % of untreated control
Protocol: as §1, §2

[3] = tested on: human pancreatic carcinoma (PANC-1); test: MTS metabolic activity assay, PANC-1 cells; format: cell-based; conditions: Homo sapiens, 72 h, read-out: Cell metabolic activity (MTS), % of untreated control; for viability at 10 µM: PANC-1, 10 µM; for viability at 20 µM: PANC-1, 20 µM; for viability at 50 µM: PANC-1, 50 µM; for viability at 100 µM: PANC-1, 100 µM; for viability at 200 µM: PANC-1, 200 µM; for viability at 300 µM: PANC-1, 300 µM; for viability at 500 µM: PANC-1, 500 µM
Protocol: as §1, §2

[4] = tested on: human colon carcinoma (Caco-2); test: MTS metabolic activity assay, Caco-2 cells; format: cell-based; conditions: Homo sapiens, 72 h, read-out: Cell metabolic activity (MTS), % of untreated control; for viability at 10 µM: Caco-2, 10 µM; for viability at 20 µM: Caco-2, 20 µM; for viability at 50 µM: Caco-2, 50 µM; for viability at 100 µM: Caco-2, 100 µM; for viability at 200 µM: Caco-2, 200 µM; for viability at 300 µM: Caco-2, 300 µM; for viability at 500 µM: Caco-2, 500 µM
Protocol: as §1, §2

[5] = tested on: human breast carcinoma (MDA-MB-231); test: MTS metabolic activity assay, MDA-MB-231 cells; format: cell-based; conditions: Homo sapiens, 72 h, read-out: Cell metabolic activity (MTS), % of untreated control; for viability at 10 µM: MDA-MB-231, 10 µM; for viability at 20 µM: MDA-MB-231, 20 µM; for viability at 50 µM: MDA-MB-231, 50 µM; for viability at 100 µM: MDA-MB-231, 100 µM; for viability at 200 µM: MDA-MB-231, 200 µM; for viability at 300 µM: MDA-MB-231, 300 µM; for viability at 500 µM: MDA-MB-231, 500 µM
Protocol: as §1, §2

[6] = target: T1, 11β-HSD1 (Homo sapiens, UniProt P28845); test: Inhibition of 11β-HSD1 (cortisone to cortisol, human liver microsomes, cortisol ELISA); format: biochemical; conditions: for inhibition at 10 µM: 2.5 h, 37 °C
T1 construct: Human liver microsomes were used as a source of 11β-HSD1 enzyme; tissue XenoTech Lot No. 1410013; host or cells: pooled human liver microsomes, mixed gender
T1 sequence (P28845 whole entry): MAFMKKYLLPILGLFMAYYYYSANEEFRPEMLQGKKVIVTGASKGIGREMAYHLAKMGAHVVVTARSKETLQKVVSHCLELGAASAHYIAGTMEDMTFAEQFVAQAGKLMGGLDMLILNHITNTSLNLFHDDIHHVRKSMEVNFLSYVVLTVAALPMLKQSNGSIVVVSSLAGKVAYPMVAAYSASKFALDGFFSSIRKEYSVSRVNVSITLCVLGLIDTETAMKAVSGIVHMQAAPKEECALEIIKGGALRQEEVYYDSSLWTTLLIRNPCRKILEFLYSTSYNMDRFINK
Protocol: The resulting solution with a final volume of 100 µL was incubated for 2.5 h at 37 °C. To stop the reaction, 10 µL of a 100 µM solution of 18β-glycyrrhetinic acid in PBS was added. The level of cortisol obtained in the reaction was measured by commercially available ELISA kit.
As a control, analogous tests without the addition of inhibitors were used. Half the inhibitory concentration (causing 50% reduction of cortisol or cortisone) was read from the chart.

[7] = tested on: BJ cells; test: MTS metabolic activity assay, BJ cells; format: cell-based; conditions: Homo sapiens, 72 h, read-out: Cell metabolic activity (MTS), % of untreated control
Protocol: as §1, §2

[8] = target: T2, 11β-HSD2 (Homo sapiens, UniProt P80365); test: Inhibition of 11β-HSD2 (cortisol to cortisone, human microsomes, cortisol ELISA); format: biochemical; conditions: 2.5 h, 37 °C
T2 construct: Human liver microsomes were used as a source of 11β-HSD2 enzyme; tissue XenoTech Lot No. 1710160; host or cells: human kidney microsomes, mixed gender (method text says human liver microsomes)
T2 sequence (P80365 1-405): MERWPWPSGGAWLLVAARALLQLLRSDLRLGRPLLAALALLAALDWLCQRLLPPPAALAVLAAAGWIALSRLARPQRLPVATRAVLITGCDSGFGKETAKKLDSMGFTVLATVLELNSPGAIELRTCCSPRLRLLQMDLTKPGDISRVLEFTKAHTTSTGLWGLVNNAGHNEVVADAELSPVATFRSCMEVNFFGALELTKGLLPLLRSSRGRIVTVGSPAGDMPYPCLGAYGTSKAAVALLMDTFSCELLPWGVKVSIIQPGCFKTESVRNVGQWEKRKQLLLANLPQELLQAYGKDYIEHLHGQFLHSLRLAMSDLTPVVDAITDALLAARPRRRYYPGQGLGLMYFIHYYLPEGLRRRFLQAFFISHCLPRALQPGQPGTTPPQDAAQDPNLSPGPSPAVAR
Protocol: The resulting solution with a final volume of 100 µL was incubated for 2.5 h at 37 °C. […] The level of unreacted cortisol was measured by a commercially available ELISA kit.

- IC50 [6]: 460 ± 70 nM
- inhibition at 10 µM [6]: 82.9 ± 2.62%
- inhibition at 10 µM [8]: 38.6 ± 3.69%
SMILES: CC(C)C1SC(NC2CCCC2)=NC1=O (stereo not shown) [Compound 3d, 2-(cyclopentylamino)-5-isopropylthiazol-4(5H)-one]
- viability at 10 µM [1]: 97.2%
- viability at 20 µM [1]: 97.1%
- viability at 50 µM [1]: 97.7%
- viability at 100 µM [1]: 102%
- viability at 200 µM [1]: 92.3%
- viability at 300 µM [1]: 78.2%
- viability at 500 µM [1]: 59.4%
- viability at 10 µM [2]: 118%
- viability at 20 µM [2]: 111%
- viability at 50 µM [2]: 114%
- viability at 100 µM [2]: 112%
- viability at 200 µM [2]: 114%
- viability at 300 µM [2]: 115%
- viability at 500 µM [2]: 120%
- highest increase in proliferation (cell metabolic activity) ([2]; U-118 MG, range given for the named substances together): 115 to 144%
- viability at 10 µM [3]: 107%
- viability at 20 µM [3]: 103%
- viability at 50 µM [3]: 105%
- viability at 100 µM [3]: 116%
- viability at 200 µM [3]: 113%
- viability at 300 µM [3]: 119%
- viability at 500 µM [3]: 118%
- viability at 10 µM [4]: 88.8%
- viability at 20 µM [4]: 82.8%
- viability at 50 µM [4]: 90.8%
- viability at 100 µM [4]: 83.1%
- viability at 200 µM [4]: 84.8%
- viability at 300 µM [4]: 85.3%
- viability at 500 µM [4]: 70.1%
- viability at 10 µM [5]: 92.8%
- viability at 20 µM [5]: 91.2%
- viability at 50 µM [5]: 95.5%
- viability at 100 µM [5]: 94.4%
- viability at 200 µM [5]: 86.6%
- viability at 300 µM [5]: 81.8%
- viability at 500 µM [5]: 57.6%
- viability at 10 µM [7]: 109%
- viability at 20 µM [7]: 106%
- viability at 50 µM [7]: 109%
- viability at 100 µM [7]: 110%
- viability at 200 µM [7]: 116%
- viability at 300 µM [7]: 118%
- viability at 500 µM [7]: 118%

- IC50 [6]: > 10000 nM
- inhibition at 10 µM [6]: 10.9 ± 4.08%
- inhibition at 10 µM [8]: 40.3 ± 0.65%
SMILES: CC1SC(NC2CCCC2)=NC1=O (stereo not shown) [Compound 3a, 2-(cyclopentylamino)-5-methylthiazol-4(5H)-one]
- viability at 10 µM [1]: 104%
- viability at 20 µM [1]: 102%
- viability at 50 µM [1]: 102%
- viability at 100 µM [1]: 106%
- viability at 200 µM [1]: 103%
- viability at 300 µM [1]: 101%
- viability at 500 µM [1]: 97.6%
- viability at 10 µM [2]: 111%
- viability at 20 µM [2]: 109%
- viability at 50 µM [2]: 113%
- viability at 100 µM [2]: 110%
- viability at 200 µM [2]: 110%
- viability at 300 µM [2]: 110%
- viability at 500 µM [2]: 105%
- viability at 10 µM [3]: 99.7%
- viability at 20 µM [3]: 104%
- viability at 50 µM [3]: 106%
- viability at 100 µM [3]: 107%
- viability at 200 µM [3]: 110%
- viability at 300 µM [3]: 106%
- viability at 500 µM [3]: 104%
- viability at 10 µM [4]: 86.2%
- viability at 20 µM [4]: 92.8%
- viability at 50 µM [4]: 82.6%
- viability at 100 µM [4]: 81.6%
- viability at 200 µM [4]: 76.9%
- viability at 300 µM [4]: 75.5%
- viability at 500 µM [4]: 66.8%
- viability at 10 µM [5]: 105%
- viability at 20 µM [5]: 107%
- viability at 50 µM [5]: 103%
- viability at 100 µM [5]: 105%
- viability at 200 µM [5]: 104%
- viability at 300 µM [5]: 93.6%
- viability at 500 µM [5]: 89.8%
- viability at 10 µM [7]: 95.9%
- viability at 20 µM [7]: 98.4%
- viability at 50 µM [7]: 102%
- viability at 100 µM [7]: 112%
- viability at 200 µM [7]: 109%
- viability at 300 µM [7]: 109%
- viability at 500 µM [7]: 110%

Source: paper PMC10139140, “Synthesis of Novel 2-(Cyclopentylamino)thiazol-4(5H)-one Derivatives with Potential Anticancer, Antioxidant, and 11β-HSD Inhibitory Activities” (International Journal of Molecular Sciences, 2023)
